Laboratory results taken from patent US20260049071A1, “PROTEIN TYROSINE KINASE INHIBITOR AND MEDICAL USE THEREOF” (BEYANG THERAPEUTICS CO., LTD., priority 2022, published 2026).

How the values were obtained:
FLT4 (VEGFR3) = FLT4 (VEGFR3) (Homo sapiens (Human), UniProt P35916); experiment: Kinase inhibition, Mobility Shift Assay (VEGFR3); assay type: biochemical
Protocol: (§1) This assay directly monitored the ability of compounds to inhibit kinase phosphorylation by measuring non-phosphorylated and phosphorylated substrates in kinase reactions by using Mobility Shift Assays/IMAP™ analysis.
(§2) Add the kinase and DTT to 1× kinase buffer to form a 2.5× kinase solution; transfer 10 μL of 2.5× kinase solution to a 384-well reaction plate and add 1× kinase buffer to negative control wells. Incubate the plate for 10 min at room temperature; add FAM-labeled peptides, MgCl2, ATP and other reagents to 1× kinase buffer to form a 2.5× substrate solution; transfer 10 μL of the above 2.5× substrate solution to the 384-well reaction plate; incubate the plate at 28° C. for different times, and add 25 μL of stop solution to the 384-well reaction plate to stop the reaction. Read the conversion ratio data on CaliperEZ Reader II. Convert conversion rates into inhibition ratio data.
(§3) “Min” indicates the readout of the control well without the addition of kinase; and “Max” indicates the readout of the control well with the addition of DMSO. Fit IC50 values with XLFit excel add-in version 5.4.0.8.
(§4) X indicates the log value of compound concentration, and Y indicates the inhibition ratio (% inhibition).

melanin = experiment: Binding capacity of compounds to melanin; assay type: in vitro ADME; conditions: Sepia officinalis (cuttlefish), melanin suspension (1 mg/mL); 1 mg/mL melanin suspension in PBS pH 7.4, 2 μM compound, 2 h at 37° C.; read-out: Fu % (percentage of free drug, not bound to melanin)
Text: Pigmented eye tissues contain melanin in intracellular melanosomes. Drugs bind to melanin to varying degrees, ranging from non-binding to extensive binding. Therefore, melanin binding is an important feature that affects drug delivery and biodistribution in the eye. The binding capacity of a compound to the melanin must be considered in the development of ophthalmic drugs.
Melanin was derived from the melanin of cuttlefish (Sepia officinalis) and was commercially available from Sigma Aldrich (St Louis, MO).
First, prepare 1 mg/mL melanin suspension with PBS (pH 7.4). As a washing step for the matrix, centrifuge the suspended particles for 5 min at 3000 rpm. Resuspend the resulting particles in a fresh PBS buffer, heat to 37° C. over continuous shaking and incubate it for 1 h. Accurately pipette 2 μL of the test stock solution (0.1 mM) into 98 μL of melanin suspension (1 mg/mL) to achieve a final incubation concentration of 2 μM. Similarly, accurately pipette 2 μL of the stock solution (0.1 mM) to 98 μL of PBS buffer (containing 0.1% BSA) as a blank control sample. Incubate the samples in a shaker (80-90 rpm) for 2 h at 37° C. Then, centrifuge the samples at room temperature. Pipette 50 μL of the supernatant and add 50 μL of precipitant (containing an internal standard). After protein precipitation of all the above samples, centrifuge the samples to collect the supernatants, dilute the supernatants with water (if necessary) and inject them for analysis. At the same time, measure the positive controls, including the high-binding compounds Sunitinib and chloroquine and the low-binding compound celecoxib. Establish an LC-MS/MS method for determining compound concentrations, and calibrate the peak area ratio of analyte/internal standard (Analyte/AIS) in the measured sample by the dilution factor to take it as an alternative concentration for the sample for data processing. The binding rate (Fh) of a compound in melanin was calculated as: […]
Ctest was the concentration of the compound in the melanin-incubated sample or the peak area ratio of the test compound to the internal standard. Ccontrol was the concentration of the compound in the blank control sample or the peak area ratio of the test compound to the internal standard. Percentage of free drug (Fu %)=100−Fb The binding rates of the compounds of the present invention to melanin are shown in the table below: […]

FLT1 (VEGFR1) = FLT1 (VEGFR1) (Homo sapiens (Human), UniProt P17948); experiment: Kinase inhibition, Mobility Shift Assay (VEGFR1); assay type: biochemical
Sequence of FLT1 (VEGFR1) (P17948 27-1338): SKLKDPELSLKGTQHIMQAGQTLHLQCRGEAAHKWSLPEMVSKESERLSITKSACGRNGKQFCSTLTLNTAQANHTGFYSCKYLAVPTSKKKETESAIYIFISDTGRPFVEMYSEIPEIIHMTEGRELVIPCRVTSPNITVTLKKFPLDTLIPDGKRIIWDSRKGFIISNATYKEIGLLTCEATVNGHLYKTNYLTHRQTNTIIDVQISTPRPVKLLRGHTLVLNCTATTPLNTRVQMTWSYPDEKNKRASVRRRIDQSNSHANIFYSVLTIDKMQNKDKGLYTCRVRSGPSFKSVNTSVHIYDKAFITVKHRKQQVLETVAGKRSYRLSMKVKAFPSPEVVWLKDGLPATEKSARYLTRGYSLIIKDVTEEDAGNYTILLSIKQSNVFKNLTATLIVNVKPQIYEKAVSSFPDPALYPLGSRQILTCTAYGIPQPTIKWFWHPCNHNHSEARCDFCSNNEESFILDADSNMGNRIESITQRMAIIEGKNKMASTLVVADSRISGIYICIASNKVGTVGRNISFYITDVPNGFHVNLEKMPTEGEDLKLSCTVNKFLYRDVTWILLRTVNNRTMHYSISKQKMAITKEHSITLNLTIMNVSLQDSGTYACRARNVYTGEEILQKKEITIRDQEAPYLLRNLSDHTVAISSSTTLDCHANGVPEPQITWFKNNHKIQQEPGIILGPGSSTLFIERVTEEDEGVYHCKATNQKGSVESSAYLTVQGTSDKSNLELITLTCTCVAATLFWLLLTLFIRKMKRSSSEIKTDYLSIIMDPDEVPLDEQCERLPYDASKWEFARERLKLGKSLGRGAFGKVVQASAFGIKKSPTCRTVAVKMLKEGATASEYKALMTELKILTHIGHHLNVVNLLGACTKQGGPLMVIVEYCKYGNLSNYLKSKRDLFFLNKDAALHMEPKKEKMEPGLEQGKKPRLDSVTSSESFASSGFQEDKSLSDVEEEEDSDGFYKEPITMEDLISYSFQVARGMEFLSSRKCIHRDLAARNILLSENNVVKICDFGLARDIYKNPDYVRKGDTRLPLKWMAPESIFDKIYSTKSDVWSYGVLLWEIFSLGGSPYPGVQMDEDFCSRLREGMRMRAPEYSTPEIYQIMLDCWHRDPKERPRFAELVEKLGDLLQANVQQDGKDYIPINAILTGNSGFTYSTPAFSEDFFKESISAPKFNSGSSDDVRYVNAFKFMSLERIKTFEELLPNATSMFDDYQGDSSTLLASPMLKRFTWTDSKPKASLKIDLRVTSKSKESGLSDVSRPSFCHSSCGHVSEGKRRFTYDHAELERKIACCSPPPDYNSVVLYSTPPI
Protocol: as §1, §2, §3, §4

KDR (VEGFR2) = KDR (VEGFR2) (Homo sapiens (Human), UniProt P35968); experiment: Kinase inhibition, Mobility Shift Assay (VEGFR2); assay type: biochemical
Sequence of KDR (VEGFR2) (P35968 790-1356): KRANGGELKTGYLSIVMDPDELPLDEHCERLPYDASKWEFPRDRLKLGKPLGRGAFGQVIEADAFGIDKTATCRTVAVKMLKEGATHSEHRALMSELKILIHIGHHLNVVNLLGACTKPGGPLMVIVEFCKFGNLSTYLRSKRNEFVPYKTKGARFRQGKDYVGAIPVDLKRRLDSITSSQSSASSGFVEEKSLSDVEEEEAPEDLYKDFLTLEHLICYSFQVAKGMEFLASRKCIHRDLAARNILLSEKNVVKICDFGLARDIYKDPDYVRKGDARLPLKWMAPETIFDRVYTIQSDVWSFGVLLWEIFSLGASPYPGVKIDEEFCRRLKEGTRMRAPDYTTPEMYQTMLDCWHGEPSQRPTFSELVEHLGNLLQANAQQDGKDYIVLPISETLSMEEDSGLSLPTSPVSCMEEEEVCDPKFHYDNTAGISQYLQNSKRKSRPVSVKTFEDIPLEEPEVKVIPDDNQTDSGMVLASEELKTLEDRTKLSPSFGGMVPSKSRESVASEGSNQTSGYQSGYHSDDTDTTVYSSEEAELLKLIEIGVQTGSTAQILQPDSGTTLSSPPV
Protocol: as §1, §2, §3, §4

EGFR = EGFR (Homo sapiens (Human), UniProt P00533); experiment: Kinase inhibition, Mobility Shift Assay (EGFR); assay type: biochemical
Sequence of EGFR (P00533 25-1210): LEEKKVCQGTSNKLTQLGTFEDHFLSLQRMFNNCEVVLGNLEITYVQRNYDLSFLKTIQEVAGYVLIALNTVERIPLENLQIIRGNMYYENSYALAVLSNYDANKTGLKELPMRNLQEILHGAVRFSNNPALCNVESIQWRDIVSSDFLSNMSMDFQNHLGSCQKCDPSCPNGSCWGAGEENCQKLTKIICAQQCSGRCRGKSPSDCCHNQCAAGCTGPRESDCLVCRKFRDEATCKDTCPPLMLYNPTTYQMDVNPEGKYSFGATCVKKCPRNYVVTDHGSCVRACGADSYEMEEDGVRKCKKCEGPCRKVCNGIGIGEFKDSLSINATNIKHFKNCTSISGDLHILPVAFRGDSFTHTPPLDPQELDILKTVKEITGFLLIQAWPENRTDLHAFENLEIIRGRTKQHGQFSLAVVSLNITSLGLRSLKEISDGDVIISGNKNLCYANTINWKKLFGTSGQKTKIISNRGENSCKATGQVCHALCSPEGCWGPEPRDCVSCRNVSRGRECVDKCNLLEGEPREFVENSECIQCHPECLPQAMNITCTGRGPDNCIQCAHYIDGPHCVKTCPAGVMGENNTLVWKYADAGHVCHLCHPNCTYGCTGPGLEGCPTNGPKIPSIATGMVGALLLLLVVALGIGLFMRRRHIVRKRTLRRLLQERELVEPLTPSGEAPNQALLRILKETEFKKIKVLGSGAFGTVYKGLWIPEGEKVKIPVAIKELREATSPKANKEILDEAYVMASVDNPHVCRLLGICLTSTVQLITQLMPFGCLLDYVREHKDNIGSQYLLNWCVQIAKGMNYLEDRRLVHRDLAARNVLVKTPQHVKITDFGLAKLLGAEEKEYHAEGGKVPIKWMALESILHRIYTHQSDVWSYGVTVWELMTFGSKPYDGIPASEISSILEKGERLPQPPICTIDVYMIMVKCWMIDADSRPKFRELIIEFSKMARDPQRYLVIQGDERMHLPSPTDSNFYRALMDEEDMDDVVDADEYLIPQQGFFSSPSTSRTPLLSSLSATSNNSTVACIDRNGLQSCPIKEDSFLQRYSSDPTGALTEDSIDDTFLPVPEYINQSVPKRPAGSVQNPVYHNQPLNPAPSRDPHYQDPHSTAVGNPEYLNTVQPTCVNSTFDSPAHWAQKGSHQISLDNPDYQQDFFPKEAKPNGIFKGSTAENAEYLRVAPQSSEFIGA
Protocol: as §1, §2, §3, §4

Sequence of FLT4 (VEGFR3) (P35916 25-1363): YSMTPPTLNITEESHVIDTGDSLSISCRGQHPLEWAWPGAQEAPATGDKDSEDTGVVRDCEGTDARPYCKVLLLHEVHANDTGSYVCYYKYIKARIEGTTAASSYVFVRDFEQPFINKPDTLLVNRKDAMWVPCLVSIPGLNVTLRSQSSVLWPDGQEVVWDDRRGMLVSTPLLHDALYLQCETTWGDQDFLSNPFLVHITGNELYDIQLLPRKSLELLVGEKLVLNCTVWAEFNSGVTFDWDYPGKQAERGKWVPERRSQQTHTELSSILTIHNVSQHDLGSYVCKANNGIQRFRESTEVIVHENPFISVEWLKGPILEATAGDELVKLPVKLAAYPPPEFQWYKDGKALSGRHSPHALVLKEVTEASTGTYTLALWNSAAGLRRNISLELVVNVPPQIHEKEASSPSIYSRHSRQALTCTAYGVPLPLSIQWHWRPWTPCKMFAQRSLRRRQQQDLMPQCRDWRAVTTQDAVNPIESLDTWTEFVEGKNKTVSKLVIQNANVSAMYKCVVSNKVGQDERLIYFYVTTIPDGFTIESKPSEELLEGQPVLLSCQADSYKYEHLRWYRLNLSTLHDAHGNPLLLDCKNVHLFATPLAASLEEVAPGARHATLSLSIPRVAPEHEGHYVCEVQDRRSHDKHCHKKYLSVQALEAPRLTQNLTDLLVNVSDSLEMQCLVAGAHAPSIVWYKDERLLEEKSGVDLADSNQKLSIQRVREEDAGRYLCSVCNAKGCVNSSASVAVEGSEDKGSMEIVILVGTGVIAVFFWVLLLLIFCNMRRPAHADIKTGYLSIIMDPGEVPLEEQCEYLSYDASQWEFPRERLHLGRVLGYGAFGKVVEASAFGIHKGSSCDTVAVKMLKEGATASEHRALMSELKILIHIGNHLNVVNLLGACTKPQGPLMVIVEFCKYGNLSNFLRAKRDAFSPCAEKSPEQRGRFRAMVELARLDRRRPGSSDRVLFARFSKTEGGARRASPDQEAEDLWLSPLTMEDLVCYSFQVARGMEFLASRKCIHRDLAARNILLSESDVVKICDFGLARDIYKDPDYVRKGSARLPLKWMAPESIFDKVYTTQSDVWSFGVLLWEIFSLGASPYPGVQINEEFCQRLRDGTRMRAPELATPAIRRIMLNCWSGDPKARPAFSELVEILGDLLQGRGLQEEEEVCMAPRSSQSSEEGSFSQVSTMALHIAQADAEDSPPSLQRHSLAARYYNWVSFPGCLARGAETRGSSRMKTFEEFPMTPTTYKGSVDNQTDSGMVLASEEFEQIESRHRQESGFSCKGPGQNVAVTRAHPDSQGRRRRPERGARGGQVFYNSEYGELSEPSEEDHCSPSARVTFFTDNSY

Row | IC50 (FLT4 (VEGFR3)) | fraction unbound at 2 h, 2 μM (melanin) | IC50 (FLT1 (VEGFR1)) | IC50 (KDR (VEGFR2)) | IC50 (EGFR) | Structure (SMILES)
1 | ≤ 1 nM | > 0.05 | ≤ 1 nM | ≤ 1 nM |  | CNC(=O)c1ccccc1Sc1ccc2c(/C=C/c3ccc(OCC4CCN(C)C4)cn3)n[nH]c2c1 (stereo not drawn) [Compound I-1, N-methyl-2-({3-[(E)-2-{5-[(1-methylpyrrolidin-3-yl)methoxy]pyridin-2-yl}vinyl]-1H-indazol-6-yl}thio)benzamide]
2 | ≤ 1 nM | 0.01 to 0.05 | ≤ 1 nM | ≤ 1 nM | 6000 to 60000 nM | CNC(=O)c1ccccc1Sc1ccc2c(/C=C/c3ccc(OCCC4CCN(C)CC4)cn3)n[nH]c2c1 [Compound I-5, N-methyl-2-({3-[(E)-2-{5-[2-(1-methylpiperidin-4-yl)ethoxy]pyridin-2-yl}vinyl]-1H-indazol-6-yl}thio)benzamide]
3 | 1 to 10 nM | 0.01 to 0.05 | 1 to 10 nM | 1 to 10 nM | 6000 to 60000 nM | CNC(=O)c1ccccc1Sc1ccc2c(/C=C/c3cccc(OCCN4CCCC4)c3)n[nH]c2c1 [Compound I-15, N-methyl-2-({3-[(E)-2-{3-[2-(pyrrolidin-1-yl)ethoxy]phenyl}vinyl]-1H-indazol-6-yl}thio)benzamide]
4 | 1 to 10 nM | < 0.01 | 1 to 10 nM | 1 to 10 nM | 6000 to 60000 nM | CNC(=O)c1ccccc1Sc1ccc2c(C#Cc3ccc(OCCN4CCCC4)cn3)n[nH]c2c1 [Compound I-16, N-methyl-2-{[3-(2-{5-[2-(pyrrolidin-1-yl)ethoxy]pyridin-2-yl}ethynyl)-1H-indazol-6-yl]thio}benzamide]
5 | 10 to 100 nM | 0.01 to 0.05 | 10 to 100 nM | 10 to 100 nM | > 60000 nM | CNC(=O)c1ccccc1Sc1ccc2c(/C=C/c3cncc(OCCN4CCCC4)c3)n[nH]c2c1 [Compound I-22, N-methyl-2-({3-[(E)-2-{5-[2-(pyrrolidin-1-yl)ethoxy]pyridin-3-yl}vinyl]-1H-indazol-6-yl}thio)benzamide]
6 | 10 to 100 nM | > 0.05 | 10 to 100 nM | > 100 nM | 6000 to 60000 nM | CNC(=O)c1ccccc1Sc1ccc2c(/C=C/c3ccnn3CCN3CCCC3)n[nH]c2c1 [Compound I-25, N-methyl-2-({3-[(E)-2-{1-[2-(pyrrolidin-1-yl)ethyl]-1H-pyrazole-5-yl}vinyl]-1H-indazol-6-yl}thio)benzamide]
7 | 10 to 100 nM |  | 1 to 10 nM | ≤ 1 nM | > 60000 nM | O=C(NC1CC1)c1cc(F)ccc1Sc1ccc2c(/C=C/c3cc(CCCN4CCCC4)ccn3)n[nH]c2c1 [Compound I-119, N-cyclopropyl-5-fluoro-2-({3-[(E)-2-{4-[3-(pyrrolidin-1-yl)propyl]pyridin-2-yl}vinyl]-1H-indazol-6-yl}thio)benzamide]
8 | 1 to 10 nM |  | 1 to 10 nM | ≤ 1 nM | > 60000 nM | O=C(NC1CC1)c1ccccc1Sc1ccc2c(/C=C/c3cc(CCCN4CCCC4)ccn3)n[nH]c2c1 [Compound I-120, N-cyclopropyl-2-({3-[(E)-2-{4-[3-(pyrrolidin-1-yl)propyl]pyridin-2-yl}vinyl]-1H-indazol-6-yl}thio)benzamide]
9 | ≤ 1 nM |  | 1 to 10 nM | ≤ 1 nM | 6000 to 60000 nM | O=C(NC1CC1)c1ccccc1Sc1ccc2c(/C=C/c3cccc(CCCN4CCCC4)n3)n[nH]c2c1 [Compound I-121, N-cyclopropyl-2-({3-[(E)-2-{6-[3-(pyrrolidin-1-yl)propyl]pyridin-2-yl}vinyl]-1H-indazol-6-yl}thio)benzamide]

The next lines start with the compound.

Row | Structure (SMILES) | IC50 (FLT4 (VEGFR3)) | fraction unbound at 2 h, 2 μM (melanin) | IC50 (FLT1 (VEGFR1)) | IC50 (KDR (VEGFR2)) | IC50 (EGFR)
10 | CNC(=O)c1ccccc1Sc1ccc2c(/C=C/c3ccc(OCCN4CCN(C)CC4)cn3)n[nH]c2c1 [Compound I-4, N-methyl-2-({3-[(E)-2-{5-[2-(4-methylpiperazin-1-yl)ethoxy]pyridin-2-yl}vinyl]-1H-indazol-6-yl}thio)benzamide] | ≤ 1 nM | > 0.05 | ≤ 1 nM | ≤ 1 nM | 6000 to 60000 nM
11 | O=C(NC1CC1)c1ccccc1Sc1ccc2c(/C=C/c3ccc(OCCN4CCCC4)cn3)n[nH]c2c1 [Compound I-8, N-cyclopropyl-2-({3-[(E)-2-{5-[2-(pyrrolidin-1-yl)ethoxy]pyridin-2-yl}vinyl]-1H-indazol-6-yl}thio)benzamide] | 1 to 10 nM | 0.01 to 0.05 | 1 to 10 nM | 1 to 10 nM | 6000 to 60000 nM
12 | CNC(=O)c1ccccc1Sc1ccc2c(/C=C/c3ccn(CCCN4CCCC4)n3)n[nH]c2c1 [Compound I-11, N-methyl-2-({3-[(E)-2-{1-[3-(pyrrolidin-1-yl)propyl]-1H-pyrazole-3-yl}vinyl]-1H-indazol-6-yl}thio)benzamide] | 1 to 10 nM | 0.01 to 0.05 | 1 to 10 nM | 1 to 10 nM | 6000 to 60000 nM
13 | CNC(=O)c1ccccc1Sc1ccc2c(/C=C/c3ccn(CCN4CCCC4)n3)n[nH]c2c1 [Compound I-13, N-methyl-2-({3-[(E)-2-{1-[2-(pyrrolidin-1-yl)ethyl]-1H-pyrazole-3-yl}vinyl]-1H-indazol-6-yl}thio)benzamide] | ≤ 1 nM | 0.01 to 0.05 | 1 to 10 nM | 1 to 10 nM | 6000 to 60000 nM
14 | CNC(=O)c1ccccc1Sc1ccc2c(/C=C/c3cccc(OCCN4CCCC4)n3)n[nH]c2c1 [Compound I-17, N-methyl-2-({3-[(E)-2-{6-[2-(pyrrolidin-1-yl)ethoxy]pyridin-2-yl}vinyl]-1H-indazol-6-yl}thio)benzamide] | 1 to 10 nM | 0.01 to 0.05 | 1 to 10 nM | 1 to 10 nM | 6000 to 60000 nM
15 | CNC(=O)c1ccccc1Sc1ccc2c(/C=C/c3ccnc(OCCN4CCCC4)c3)n[nH]c2c1 [Compound I-18, N-methyl-2-({3-[(E)-2-{2-[2-(pyrrolidin-1-yl)ethoxy]pyridin-4-yl}vinyl]-1H-indazol-6-yl}thio)benzamide] | 1 to 10 nM | 0.01 to 0.05 | 1 to 10 nM | 1 to 10 nM | 6000 to 60000 nM
16 | CNC(=O)c1ccccc1Sc1ccc2c(/C=C/c3ccc(OCCN4CCCC4)nc3)n[nH]c2c1 [Compound I-19, N-methyl-2-({3-[(E)-2-{6-[2-(pyrrolidin-1-yl)ethoxy]pyridin-3-yl}vinyl]-1H-indazol-6-yl}thio)benzamide] | 1 to 10 nM | 0.01 to 0.05 | 1 to 10 nM | 1 to 10 nM | > 60000 nM
17 | CNC(=O)c1ccccc1Sc1cnc2c(/C=C/c3ccccn3)n[nH]c2c1 [Compound I-21, N-methyl-2-({3-[(E)-2-(pyridin-2-yl)vinyl]-1H-pyrazolo[4,3-b]pyridin-6-yl}thio)benzamide] | 10 to 100 nM | 0.01 to 0.05 | 10 to 100 nM | 10 to 100 nM | 6000 to 60000 nM
18 | CNC(=O)c1ccccc1Sc1ccc2c(C#Cc3cc(OCCN4CCCC4)ccn3)n[nH]c2c1 [Compound I-23, N-methyl-2-{[3-(2-{4-[2-(pyrrolidin-1-yl)ethoxy]pyridin-2-yl}ethynyl)-1H-indazol-6-yl]thio}benzamide] | > 100 nM | 0.01 to 0.05 | 10 to 100 nM | 10 to 100 nM | 6000 to 60000 nM
19 | CNC(=O)c1ccccc1Sc1ccc2c(Nc3ccc(OCCN4CCCC4)cn3)n[nH]c2c1 [Compound I-30, N-methyl-2-{[3-({5-[2-(pyrrolidin-1-yl)ethoxy]pyridin-2-yl}amino)-1H-indazol-6-yl]thio}benzamide] | > 100 nM |  | > 100 nM | > 100 nM | 6000 to 60000 nM
